This assay relates to T1, TePeNMT (TeMT1).
T1 construct: N-terminal His-tag, codon optimized synthetic gene in pET30a(+) NotI/XhoI, E. coli BL21(DE3), Ni-NTA purified; no chloroplast transit peptide predicted
Description: Michaelis-Menten kinetics, LC-MS/MS detection of product vobasine. Type of assay: biochemical, Tabernaemontana elegans. Particulars: 50 μM S-adenosylmethionine (saturating), 20 mM Tris pH 7.5, 30 °C, 5 min. An excerpt: Michaelis-Menten kinetics, LC-MS/MS detection of product vobasine on TePeNMT (TeMT1)

The term Km denotes the concentration of substrate that gives half-maximal velocity. Turning to `C/C=C1/CN[C@H]2Cc3c([nH]c4ccccc34)C(=O)C[C@@H]1[C@@H]2C(=O)OC` [perivine], the Km turned out to be 1.91 µM.

These data come from publication PMC11383786, “Parallel evolution of methyltransferases leads to vobasine biosynthesis in Tabernaemontana elegans and Catharanthus roseus” (Frontiers in Plant Science, 2024).
